This is an account of results in the supplement of paper PMC11208160.
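Further: IS621 bridge recombinase in Escherichia coli cells against a fixed T5 target plasmid.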

The nature of the data set: recombinant UMI read abundance after kanamycin selection (control-corrected) (log10(CPM+1)); higher = more efficient recombination; extreme values may be limits of the assay; sequences stand for … in AGTGCAGAGAAAATCGGCCAGTTTTCTCTGCCTGCAGTCCGCATGCCGTGGGACCCCTTGGGTTCTAACCTGTTGCCTAGATTTATGCAGCGGACTGCCTTTCTCCCAAAGTGATAAACCGG…AGGTTGGTTTCACT; site = the 11-nt donor. An outline of the steps: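 Under IPTG (0.07 mM) plus kanamycin, or without selection, Escherichia coli carrying a UMI-tagged donor and donor-binding-loop pair library and a target plasmid for the IS621 bridge recombinase were plated in two replicates. Recombinant UMIs were PCR-amplified across the donor–target junction and sequenced. Counts were converted to CPM, averaged over replicates, scaled by control-derived factors and reported as log10(CPM+1).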
Take “CGTTCCACATGGACCGGTTTTCCCGGTAATCCGTATTTGTG (site CGTTCCACTCA)”: the “recombinant UMI read abundance (log10)” value was 0.0103.
As for “CGTTGACCATGGACCGGTTTTCCCGGTAATCCGTATTTGGA (site CGTTGACCTTC)”, the “recombinant UMI read abundance (log10)” value was 0.0127.
As for “CGTTGATCATGGACCGGTTTTCCCGGTAATCCGTATTTGCT (site CGATCATCTAG)”, the figure is 0.00695; as for “CGTTGATCATGGACCGGTTTTCCCGGTAATCCGTATTTGCT (site CGTTGATCTAG)”, 2.78.
As for “CGTTGGTCATGGACCGGTTTTCCCGGTAATCCGTATTTGCA (site CGTTGGTCTTG)”, the figure is 1.29.
The same measure for “CGTTTCGCATGGACCGGTTTTCCCGGTAATCCGTATTTGGA (site CGTTTCGCTTC)”: 0.0198; for “CGTTTGGCATGGACCGGTTTTCCCGGTAATCCGTATTTGGT (site CGTTTGGCTAA)”: 0.0435.
Regarding “CGTTTGGCATGGACCGGTTTTCCCGGTAATCCGTATTTGGT (site CGTTTGGCTAC)”, the “recombinant UMI read abundance (log10)” value is 1.31.
As for “CGTTTGGCATGGACCGGTTTTCCCGGTAATCCGTATTTGGT (site CGTTTGGCTAG)”, the figure is 0.00668; as for “CGTTTGGCATGGACCGGTTTTCCCGGTAATCCGTATTTGGT (site CGTTTGGCTAT)”, 0.959; as for “CGTTTGGCATGGACCGGTTTTCCCGGTAATCCGTATTTGTT (site CGTTTGGCTAA)”, 0.693.
The same measure for “CGTTTGGCATGGACCGGTTTTCCCGGTAATCCGTATTTGTT (site CGTTTGGCTAC)”: 0.0131; for “CGTTTGGCATGGACCGGTTTTCCCGGTAATCCGTATTTGTT (site CGTTTGGCTAG)”: 0.989; for “CGTTTGGCATGGACCGGTTTTCCCGGTAATCCGTATTTGTT (site CGTTTGGCTAT)”: 0.033.
As for “CGTTTGTCATGGACCGGTTTTCCCGGTAATCCGTATTTGCT (site CGTTTGACTAG)”, the figure is 0.
As for “CGTTTGTCATGGACCGGTTTTCCCGGTAATCCGTATTTGCT (site CGTTTGCCTAG)”, the “recombinant UMI read abundance (log10)” value was 0.
Turning to “CGTTTGTCATGGACCGGTTTTCCCGGTAATCCGTATTTGCT (site CGTTTGGCTAG)”, the “recombinant UMI read abundance (log10)” value was determined as 0.
As for “CGTTTGTCATGGACCGGTTTTCCCGGTAATCCGTATTTGCT (site CGTTTGTCTAG)”, the figure is 1.92; as for “CGTTTTGCATGGACCGGTTTTCCCGGTAATCCGTATTTGCT (site CGTTTAGCTAG)”, 0; as for “CGTTTTGCATGGACCGGTTTTCCCGGTAATCCGTATTTGCT (site CGTTTCGCTAG)”, 0.
The same measure for “CGTTTTGCATGGACCGGTTTTCCCGGTAATCCGTATTTGCT (site CGTTTGGCTAG)”: 0; for “CGTTTTGCATGGACCGGTTTTCCCGGTAATCCGTATTTGCT (site CGTTTTGCTAG)”: 0.543; for “CTAAAAGCATGGACCGGTTTTCCCGGTAATCCGTATTTGGC (site CTAAAAGCTGC)”: 0.
As to “CTAAAATCATGGACCGGTTTTCCCGGTAATCCGTATTTGAC (site CTAAAATCTGT)”, the “recombinant UMI read abundance (log10)” value came out at 2.03.
The same measure for “CTAAAATCATGGACCGGTTTTCCCGGTAATCCGTATTTGAC (site CTAGTATCTGT)”: 0.0803; for “CTAAGAACATGGACCGGTTTTCCCGGTAATCCGTATTTGAA (site CTAAGAACTTT)”: 2.44.
In the case of “CTAAGGCCATGGACCGGTTTTCCCGGTAATCCGTATTTGAC (site ATAAGGCCTGT)”, the “recombinant UMI read abundance (log10)” value was 0.
Consider “CTAAGGCCATGGACCGGTTTTCCCGGTAATCCGTATTTGAC (site CTAAGGCCTGT)”, for which the “recombinant UMI read abundance (log10)” value is 0.577.
The same measure for “CTAAGGCCATGGACCGGTTTTCCCGGTAATCCGTATTTGAC (site GTAAGGCCTGT)”: 0.
As for “CTAAGGCCATGGACCGGTTTTCCCGGTAATCCGTATTTGAC (site TTAAGGCCTGT)”, the “recombinant UMI read abundance (log10)” value worked out at 0.
As for “CTAATAACATGGACCGGTTTTCCCGGTAATCCGTATTTGGA (site CTAATAACTTC)”, the “recombinant UMI read abundance (log10)” value was 2.05.
The same measure for “CTAATAACATGGACCGGTTTTCCCGGTAATCCGTATTTGGA (site CTACTAACTTC)”: 0.337; for “CTAATAACATGGACCGGTTTTCCCGGTAATCCGTATTTGGA (site CTAGTAACTTC)”: 0.0598.
As to “CTAATAACATGGACCGGTTTTCCCGGTAATCCGTATTTGGA (site CTATTAACTTC)”, the “recombinant UMI read abundance (log10)” value was found to be 1.14.
Turning to “CTAATTACATGGACCGGTTTTCCCGGTAATCCGTATTTGTG (site CTAATTACTCA)”, the “recombinant UMI read abundance (log10)” value stood at 0.859.
For “CTACCGTCATGGACCGGTTTTCCCGGTAATCCGTATTTGGG (site CTACCGTCTCC)”, the “recombinant UMI read abundance (log10)” value is 0.901.
As for “CTACCTACATGGACCGGTTTTCCCGGTAATCCGTATTTGAG (site CTACCTACTCT)”, the figure is 1.04.
In the case of “CTACCTACATGGACCGGTTTTCCCGGTAATCCGTATTTGAG (site CTCCCTACTCT)”, the “recombinant UMI read abundance (log10)” value is 0.0123.
As for “CTACCTACATGGACCGGTTTTCCCGGTAATCCGTATTTGAG (site CTGCCTACTCT)”, the figure is 0.00249; as for “CTACCTACATGGACCGGTTTTCCCGGTAATCCGTATTTGAG (site CTTCCTACTCT)”, 0.0155.
The same measure for “CTACTAACATGGACCGGTTTTCCCGGTAATCCGTATTTGAA (site CTACTAACTTA)”: 0.909; for “CTACTAACATGGACCGGTTTTCCCGGTAATCCGTATTTGAA (site CTACTAACTTC)”: 0.291.
The same measure for “CTACTAACATGGACCGGTTTTCCCGGTAATCCGTATTTGAA (site CTACTAACTTG)”: 0.
On to “CTACTAACATGGACCGGTTTTCCCGGTAATCCGTATTTGAA (site CTACTAACTTT)”, for which the “recombinant UMI read abundance (log10)” value turned out to be 2.27.
Regarding “CTACTAACATGGACCGGTTTTCCCGGTAATCCGTATTTGGA (site ATACTAACTTC)”, the “recombinant UMI read abundance (log10)” value amounted to 0.387.
As for “CTACTAACATGGACCGGTTTTCCCGGTAATCCGTATTTGGA (site CAACTAACTTC)”, the figure is 0.0111; as for “CTACTAACATGGACCGGTTTTCCCGGTAATCCGTATTTGGA (site CCACTAACTTC)”, 0.567.
As for “CTACTAACATGGACCGGTTTTCCCGGTAATCCGTATTTGGA (site CGACTAACTTC)”, the figure is 0.339; as for “CTACTAACATGGACCGGTTTTCCCGGTAATCCGTATTTGGA (site CTAATAACTTC)”, 1.38.
With “CTACTAACATGGACCGGTTTTCCCGGTAATCCGTATTTGGA (site CTACAAACTTC)”, the “recombinant UMI read abundance (log10)” value was 0.00657.
As for “CTACTAACATGGACCGGTTTTCCCGGTAATCCGTATTTGGA (site CTACCAACTTC)”, the figure is 0.307; as for “CTACTAACATGGACCGGTTTTCCCGGTAATCCGTATTTGGA (site CTACGAACTTC)”, 0.00735.
Turning to “CTACTAACATGGACCGGTTTTCCCGGTAATCCGTATTTGGA (site CTACTAACTAC)”, the “recombinant UMI read abundance (log10)” value stood at 0.0107.
The same measure for “CTACTAACATGGACCGGTTTTCCCGGTAATCCGTATTTGGA (site CTACTAACTCC)”: 0.516.
The same measure for “CTACTAACATGGACCGGTTTTCCCGGTAATCCGTATTTGGA (site CTACTAACTGC)”: 0; for “CTACTAACATGGACCGGTTTTCCCGGTAATCCGTATTTGGA (site CTACTAACTTA)”: 1.4.
As for “CTACTAACATGGACCGGTTTTCCCGGTAATCCGTATTTGGA (site CTACTAACTTC)”, the figure is 1.69; as for “CTACTAACATGGACCGGTTTTCCCGGTAATCCGTATTTGGA (site CTACTAACTTG)”, 1.13; as for “CTACTAACATGGACCGGTTTTCCCGGTAATCCGTATTTGGA (site CTACTAACTTT)”, 1.96.
With “CTACTAACATGGACCGGTTTTCCCGGTAATCCGTATTTGGA (site CTACTACCTTC)”, the “recombinant UMI read abundance (log10)” value came to 0.0182.
The same measure for “CTACTAACATGGACCGGTTTTCCCGGTAATCCGTATTTGGA (site CTACTAGCTTC)”: 0.689.
The same measure for “CTACTAACATGGACCGGTTTTCCCGGTAATCCGTATTTGGA (site CTACTATCTTC)”: 1.4; for “CTACTAACATGGACCGGTTTTCCCGGTAATCCGTATTTGGA (site CTACTCACTTC)”: 0.0167.
As for “CTACTAACATGGACCGGTTTTCCCGGTAATCCGTATTTGGA (site CTACTGACTTC)”, the “recombinant UMI read abundance (log10)” value is 0.00472.
As for “CTACTAACATGGACCGGTTTTCCCGGTAATCCGTATTTGGA (site CTACTTACTTC)”, the figure is 0.176; as for “CTACTAACATGGACCGGTTTTCCCGGTAATCCGTATTTGGA (site CTAGTAACTTC)”, 0.141; as for “CTACTAACATGGACCGGTTTTCCCGGTAATCCGTATTTGGA (site CTATTAACTTC)”, 1.29.
In the case of “CTACTAACATGGACCGGTTTTCCCGGTAATCCGTATTTGGA (site CTCCTAACTTC)”, the “recombinant UMI read abundance (log10)” value was 0.373.
